This is an account of results in patent publication US12662469B2 (SIRONAX LTD, priority 2018, dated 2026).

In the assay the test system is Cell Necrosis. Kind of assay: Cell necrosis assay / cell viability assay (necrosis inhibitor activity). The class given is cell-based. The note with it: necrosis inhibitor activity; compounds outside 14-191; read-out: EC50.
As to `O=C1CCc2ccc(C=C3CN(C(=O)N4N=CCC4c4cc(F)cc(F)c4)C3)cc2N1` (stereo not shown) [Compound 277, 7-((1-(5-(3,5-difluorophenyl)-4,5-dihydro-1H-pyrazole-1-carbonyl)azetidin-3-yildene)methyl)-3,4-dihydroquinolin-2(1H)-one], the 50% effective concentration (EC50) was in the range of 1 to 1000 nM.
As to `O=C1COc2ccc(C=C3CN(C(=O)N4N=CC[C@H]4c4cc(F)cc(F)c4)C3)cc2N1` [Compound 278, 6-((1-(5-(3,5-difluorophenyl)-4,5-dihydro-1H-pyrazole-1-carbonyl)azetidin-3-ylidene)methyl)-2H-benzo[b][1,4]oxazin-3(4H)-one], the EC50 lay in the range of 1 to 1000 nM.
As to `O=C(N1CCN(c2ncc3cc[nH]c3n2)CC1)N1N=CC[C@H]1c1cc(F)cc(F)c1` [Compound 279, (S)-(4-(7H-pyrrolo[2,3-d]pyrimidin-2-yl)piperazin-1-yl)(5-(3,5-difluorophenyl)-4,5-dihydro-1H-pyrazol-1-yl)methanone], the EC50 lay within 1 to 1000 nM.
`NC(=O)c1cnc(OC2CN(C(=O)N3N=CC[C@H]3c3cc(F)cc(F)c3)C2)s1` [Compound 280, (S)-2-((1-(5-(3,5-difluorophenyl)-4,5-dihydro-1H-pyrazole-1-carbonyl)azetidin-3-yl)oxy)thiazole-5-carboxamide]: the EC50 is 1 to 1000 nM.
Consider `N#Cc1csc(OC2CN(C(=O)N3N=CCC3c3cncc(F)c3)C2)n1` (stereo not shown) [Compound 281, 2-((1-(5-(5-fluoropyridin-3-yl)-4,5-dihydro-1H-pyrazole-1-carbonyl)azetidin-3-yl)oxy)thiazole-4-carbonitrile], for which the EC50 lay within 1 to 1000 nM.
Turning to `O=C(N1CC(=Cc2ccc3c(c2)NC(=O)C3(F)F)C1)N1N=CC[C@H]1c1cc(F)cc(F)c1` [Compound 283, (S)-6-((1-(5-(3,5-difluorophenyl)-4,5-dihydro-1H-pyrazole-1-carbonyl)azetidin-3-ylidene)methyl)-3,3-difluoroindolin-2-one], the EC50 lay in the range of 1 to 1000 nM.
The value for `O=C(N1CC(=Cc2ccc3[nH]cnc3c2)C1)N1N=CC[C@H]1c1cc(F)cc(F)c1` [Compound 284] was 1 to 1000 nM; that for `O=C(N1CC(=Cc2cc3[nH]nc(Cl)c3cc2F)C1)N1N=CC[C@H]1c1cc(F)cc(F)c1` [Compound 285, (S)-(3-((3-chloro-5-fluoro-1H-indazol-6-yl)methylene)azetidin-1-yl)(5-(3,5-difluorophenyl)-4,5-dihydro-1H-pyrazol-1-yl)methanone] was 1 to 1000 nM; that for `O=C(N1CC(=Cc2cc3[nH][nH]c(=O)c3cc2F)C1)N1N=CC[C@H]1c1cc(F)cc(F)c1` [Compound 286, (S)-6-((1-(5-(3,5-difluorophenyl)-4,5-dihydro-1H-pyrazole-1-carbonyl)azetidin-3-ylidene)methyl)-5-fluoro-1H-315-indazol-3-one] was 1 to 1000 nM.
Regarding `O=C(N1CCN(c2ncc(F)c(OCCN3CCOCC3)n2)CC1)N1N=CC[C@H]1c1cc(F)cc(F)c1` [Compound 287, (S)-(5-(3,5-difluorophenyl)-4,5-dihydro-H-pyrazol-1-yl)(4-(5-fluoro-4-(2-morpholinoethoxy)pyrimidin-2-yl)piperazin-1-yl)methanone], the EC50 lay within 1 to 1000 nM.
As for `O=C(N1CC(=Cc2ccn3nccc3c2)C1)N1N=CC[C@H]1c1cc(F)cc(F)c1` [Compound 288, (S)-(5-(3,5-difluorophenyl)-4,5-dihydro-1H-pyrazol-1-yl)(3-(pyrazolo[1,5-a]pyridin-5-ylmethylene)azetidin-1-yl)methanone], the EC50 was in the range of 1 to 1000 nM.
For `Cc1n[nH]c2cc(C=C3CN(C(=O)N4N=CC[C@H]4c4cc(F)cc(F)c4)C3)ccc12` [Compound 289, (S)-(5-(3,5-difluorophenyl)-4,5-dihydro-1H-pyrazol-1-yl)(3-((3-methyl-1H-indazol-6-yl)methylene)azetidin-1-yl)methanone], the EC50 lay in the range of 1 to 1000 nM.
As for `O=C(CC1CCCC1)Nc1nc(N2CCN(C(=O)N3N=CC[C@H]3c3cc(F)cc(F)c3)CC2)ncc1F` [Compound 290], the concentration for a half-maximal effect (EC50) was in the range of 1 to 1000 nM.

For orientation: EC50 means the concentration that produces a half-maximal response.
